Experimental data from patent publication US10919852B2, “Immunomodulator compounds” (CHEMOCENTRYX, INC., priority 2017, dated 2021).

Each compound was assayed against human PD-L1 / Human PD-1 (Homo sapiens (Human), UniProt Q9NZQ7) (assay: Enzyme-Linked Immunosorbent Assay (ELISA), PD-1/PD-L1 binding). Details: plate-coated human PD-L1, biotinylated human PD-1.
Outline: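 Plates were coated with human PD-L1 at […]. Biotinylated human PD-1 (0.3 μg/mL) was added with 1:5 serially diluted compound for 1 h at 37 °C. Bound PD-1 was detected with streptavidin-HRP (1 h) and TMB (20 min), with absorbance read at 450 nm.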

human PD-L1 / Human PD-1, sequence (Q9NZQ7 19-239): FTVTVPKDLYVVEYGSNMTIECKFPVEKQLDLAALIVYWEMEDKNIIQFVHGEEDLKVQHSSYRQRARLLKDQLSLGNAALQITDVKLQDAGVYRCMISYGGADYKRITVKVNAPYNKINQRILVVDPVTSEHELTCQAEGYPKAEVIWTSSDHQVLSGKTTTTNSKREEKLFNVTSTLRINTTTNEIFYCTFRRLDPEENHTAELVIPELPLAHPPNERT

Row | SMILES | IC50 [nM]
1 | C[C@@](CO)(NCc1cc(Cl)c(O[C@@H]2c3cccc(-c4cccc(OCCCN5CC(O)C5)c4Cl)c3C[C@@H]2F)cc1OCc1cc(C#N)cc(C#N)c1)C(=O)O | < 5
2 | Cc1c(OCCCN2CC(C)(C)C2)cccc1-c1cccc2c1CC[C@@H]2Oc1cc(OCc2cc(C#N)cc(C#N)c2)c(CN[C@H]2CCC(=O)NC2)cc1Cl | < 5
3 | CCOc1cc(O[C@H]2CCc3c(-c4cccc(OCCCN5CCC5(C)C)c4C)cccc32)c(Cl)cc1CN(C)CCn1nn[nH]c1=O | 5 to 500
4 | C[C@@](CO)(NCc1cc(Cl)c(O[C@H]2CCc3c(-c4cccc(OCCCN5CC(O)C5)c4Cl)cc(F)cc32)cc1OCc1cncc(C#N)c1)C(=O)O | < 5
5 | N#Cc1cncc(COc2cc(O[C@H]3CCc4c(-c5cccc(OCCC(N)=O)c5Cl)cccc43)c(Cl)cc2CNC[C@H]2CCC(=O)N2)c1 | 5 to 500
6 | C[C@@H](O)[C@H](NCc1cc(Cl)c(O[C@H]2CCc3c(-c4cccc(OCCCN5CCC(F)CC5)c4Cl)cccc32)cc1OCc1cncc(C#N)c1)C(=O)NS(C)(=O)=O | < 5
7 | N#Cc1cncc(COc2cc(O[C@H]3CCc4c(-c5cccc(OCCCN6CC(F)(F)C6)c5Cl)cccc43)c(Cl)cc2CNC[C@H]2CCC(=O)N2)c1 | 5 to 500
8 | C[C@@](CO)(NCc1cc(Cl)c(O[C@H]2CCc3c(-c4cccc(OCCCN)c4Cl)cccc32)cc1OCc1cncc(C#N)c1)C(=O)O | < 5
9 | CC(C)N1CCC(COc2cccc(-c3cccc4c3CC[C@@H]4Oc3cc(OCc4cncc(C#N)c4)c(CN[C@H]4CCC(=O)NC4)cc3Cl)c2Cl)C1 (stereo partly drawn) | < 5
10 | Cc1c(OCCCN2CCC(C)(F)CC2)cccc1-c1cccc2c1CC[C@@H]2Oc1cc(OCc2cncc(C#N)c2)c(CN[C@@H]2CCC(=O)NC2)cc1Cl | < 5
11 | Cc1c(OCCCN2CCC(O)CC2)cccc1-c1cccc2c1C[C@@H](F)[C@@H]2Oc1cc(OCc2cncc(C#N)c2)c(CN[C@@H](CO)C(=O)O)cc1Cl | < 5
12 | Cc1c(OCCCN2CC(C)(O)C2)cccc1-c1cccc2c1CC[C@@H]2Oc1cc(OCc2cncc(C#N)c2)c(CNCC2CCC(=O)N2)cc1Cl (stereo partly drawn) | < 5
13 | N#Cc1cncc(COc2cc(O[C@H]3CCc4c(-c5cccc(OCCCN6CCC(O)CC6)c5Cl)cccc43)c(Cl)cc2CNCC2CCC(=O)N2)c1 (stereo partly drawn) | < 5
14 | Cc1c(OCCCN2C(C)CC2C)cccc1-c1cccc2c1CC[C@@H]2Oc1cc(OCc2cc(C#N)cc(C#N)c2)c(CN[C@H]2CCC(=O)NC2)cc1Cl (stereo partly drawn) | < 5
15 | Cc1c(OCCCN2CCCCC2)cccc1-c1cccc2c1CC[C@@H]2Oc1cc(OCc2cncc(C#N)c2)c(CNC[C@@H]2CCC(=O)N2)cc1Cl | < 5
16 | C[C@@](CO)(NCc1cc(Cl)c(O[C@H]2CCc3c(-c4cccc(OCCCN5CCC(O)CC5)c4F)cccc32)cc1OCc1cncc(C#N)c1)C(=O)O | < 5
17 | Cc1c(OCCCN2CCCCC2)cccc1-c1cccc2c1CC[C@@H]2Oc1cc(OCc2cc(C#N)cc(C#N)c2)c(CNC[C@H]2CCC(=O)N2)cc1Cl | < 5
18 | N#Cc1cncc(COc2cc(O[C@H]3CCc4c(-c5cccc(OCCCN6CC7(CC(F)C7)C6)c5Cl)cccc43)c(Cl)cc2CN[C@@H]2CC[C@H]2O)c1 | < 5
19 | N#Cc1cncc(COc2cc(O[C@H]3CCc4c(-c5cccc(OCCCN6CCC(O)CC6)c5Cl)cccc43)c(Cl)cc2CN[C@@H](CO)C(=O)O)c1 | < 5
20 | Cc1c(OCCCN2CC3(C2)CC(F)(F)C3)cccc1-c1cccc2c1CC[C@@H]2Oc1cc(OCc2cc(C#N)cc(C#N)c2)c(CNC[C@H]2CCC(=O)N2)cc1Cl | 5 to 500

Row | SMILES | IC50 [nM]
21 | C[C@@H](O)[C@H](NCc1cc(Cl)c(O[C@H]2CCc3c(-c4cccc(OCCCN5CC(O)C5)c4Cl)cccc32)cc1OCc1cncc(C#N)c1)C(=O)O | < 5
22 | CC1(F)CCN(CCCOc2cccc(-c3cccc4c3CC[C@@H]4Oc3cc(OCc4cncc(C#N)c4)c(CN[C@@H]4CCC(=O)NC4)cc3Cl)c2Cl)CC1 | 5 to 500
23 | CN1CC(COc2cccc(-c3cccc4c3CC[C@@H]4Oc3cc(OCc4cncc(C#N)c4)c(CN[C@H]4CCC(=O)NC4)cc3Cl)c2Cl)CC1=O (stereo partly drawn) | 5 to 500
24 | CC(CO)(NCc1cc(Cl)c(O[C@H]2CCc3c(-c4cccc(OCCCN5CC6(CC(O)C6)C5)c4Cl)cccc32)cc1OCc1cncc(C#N)c1)C(=O)O (stereo partly drawn) | < 5
25 | N#Cc1cc(C#N)cc(COc2cc(O[C@@H]3c4cccc(-c5cccc(OCCCN6CC(O)C6)c5Cl)c4C[C@@H]3F)c(Cl)cc2CNC[C@H]2CCC(=O)N2)c1 | < 5
26 | CN1CCC(COc2cccc(-c3cccc4c3CC[C@@H]4Oc3cc(OCc4cncc(C#N)c4)c(CN[C@H]4CCC(=O)NC4)cc3Cl)c2Cl)C1 (stereo partly drawn) | 5 to 500
27 | N#Cc1cncc(COc2cc(O[C@H]3CCc4c(-c5cccc(OCCCN6CC7(CC(O)C7)C6)c5Cl)cccc43)c(Cl)cc2CN2CCCC3(C2)NC(=O)NC3=O)c1 (stereo partly drawn) | 5 to 500
28 | N#Cc1cncc(COc2cc(O[C@H]3CCc4c(-c5cccc(OCCCN6CCC(O)CC6)c5Cl)cccc43)c(Cl)cc2CNC[C@@H]2CCC(=O)N2)c1 | < 5
29 | CC(C)N1CCC(COc2cccc(-c3cccc4c3CC[C@@H]4Oc3cc(OCc4cncc(C#N)c4)c(CNC[C@@H]4CCC(=O)N4)cc3Cl)c2Cl)C1 (stereo partly drawn) | < 5
30 | N#Cc1cncc(COc2cc(O[C@H]3CCc4c(-c5cccc(OCCCN6CCC(F)CC6)c5Cl)cccc43)c(Cl)cc2CN2CCCC3(C2)NC(=O)NC3=O)c1 (stereo partly drawn) | 5 to 500
31 | CN1CCC(COc2cccc(-c3cccc4c3CC[C@@H]4Oc3cc(OCc4cncc(C#N)c4)c(CN[C@H]4CCC(=O)NC4)cc3Cl)c2Cl)C1=O (stereo partly drawn) | 5 to 500
32 | C[C@@](CO)(NCc1cc(Cl)c(O[C@H]2CCc3c(-c4cccc(OCCCN5CCC5)c4Cl)cccc32)cc1OCc1cncc(C#N)c1)C(=O)O | < 5
33 | CCOc1cc(O[C@H]2CCc3c(-c4cccc(OCCCN5CCC5(C)C)c4C)cccc32)c(Cl)cc1CNCCS(=O)(=O)O | 5 to 500
34 | CCOc1cc(O[C@H]2CCc3c(-c4cccc(OCCCN5CCC5(C)C)c4C)cccc32)c(Cl)cc1CN1CC(C)(C#N)C1 | 5 to 500
35 | N#Cc1cncc(COc2cc(O[C@H]3CCc4c(-c5cccc(OCCCN6CC(O)C6)c5Cl)cccc43)c(Cl)cc2CN2CC[C@@H](O)C2)c1 | < 5
36 | Cc1c(OCCCN2CCC(F)CC2)cccc1-c1cc(F)cc2c1CC[C@@H]2Oc1cc(OCc2cc(C#N)cc(C#N)c2)c(CN[C@H]2CCC(=O)NC2)cc1Cl | 5 to 500
37 | Cc1c(OCCCN2CCC(O)CC2)cccc1-c1cccc2c1C[C@H](F)[C@@H]2Oc1cc(OCc2cncc(C#N)c2)c(CN[C@@](C)(CO)C(=O)O)cc1Cl | < 5
38 | Cc1c(OCCCN2CCC(O)CC2)cccc1-c1cccc2c1CC[C@@H]2Oc1cc(OCc2cc(C#N)cc(C#N)c2)c(CN[C@@](C)(CO)C(=O)O)cc1Cl | < 5
39 | N#Cc1cc(C#N)cc(COc2cc(O[C@@H]3c4cccc(-c5cccc(OCCCN6CC(F)C6)c5Cl)c4C[C@H]3F)c(Cl)cc2CNC[C@H]2CCC(=O)N2)c1 | 5 to 500

The remaining lines, values ahead:

Row | IC50 [nM] | SMILES
40 | 5 to 500 | CCOc1cc(O[C@H]2CCc3c(-c4cccc(OCCCN5[C@H](C)CC[C@H]5C)c4C)cccc32)c(Cl)cc1CN1CCC[C@@H](C(=O)O)C1
41 | < 5 | Cc1c(OCCCN2CCC(F)CC2)cccc1-c1cccc2c1CC[C@@H]2Oc1cc(OCc2cc(C#N)cc(C#N)c2)c(CN[C@H]2CCC[C@@H]2O)cc1Cl
42 | < 5 | Cc1c(OCCCN2CCC(O)CC2)cccc1-c1cccc2c1CC[C@@H]2Oc1cc(OCc2cncc(C#N)c2)c(CN2CC(C(=O)O)C2)cc1Cl
43 | 5 to 500 | CCOc1cc(O[C@@H]2c3cccc(-c4cccc(OCCCN5CCC(F)CC5)c4Cl)c3C[C@@H]2F)c(Cl)cc1CN[C@@H]1CCCC[C@@H]1O
44 | < 5 | Cc1c(OCCCN2CCC(F)CC2)cccc1-c1cccc2c1CC[C@@H]2Oc1cc(OCc2cc(C#N)cc(C#N)c2)c(CN[C@@H]2CCC[C@H]2O)cc1Cl
45 | < 5 | N#Cc1cncc(COc2cc(O[C@H]3CCc4c(-c5cccc(OCCCN6CC7(CC(F)C7)C6)c5Cl)cccc43)c(Cl)cc2CN[C@@H]2CCC[C@@H]2O)c1
46 | < 5 | Cc1c(OCCCN2CCC(O)CC2)cccc1-c1cccc2c1CC[C@@H]2Oc1cc(OCc2cncc(C#N)c2)c(CN[C@@H]2CCCC[C@H]2O)cc1Cl
47 | < 5 | CCOc1cc(O[C@H]2CCc3c(-c4cccc(OCCCN5CC[C@@H](O)C5)c4C)cccc32)c(Cl)cc1CN[C@H](C(=O)O)[C@@H](C)O
48 | < 5 | N#Cc1cncc(COc2cc(O[C@H]3CCc4c(-c5cccc(OCCCN6CC7(CC(F)C7)C6)c5Cl)cccc43)c(Cl)cc2CN[C@H]2CCC[C@H]2O)c1
49 | 5 to 500 | CCOc1cc(O[C@H]2CCc3c(-c4cccc(OCCCN5CC[C@@H](O)C5)c4C)cccc32)c(Cl)cc1CN[C@@H]1CCCC[C@@H]1O
50 | < 5 | CCOc1cc(O[C@H]2CCc3c(-c4cccc(OCCCN5CC[C@@H](O)C5)c4C)cccc32)c(Cl)cc1CNC(CO)CO
51 | < 5 | Cc1c(OCCCN2CCC(O)CC2)cccc1-c1cccc2c1CC[C@@H]2Oc1cc(OCc2cncc(C#N)c2)c(CNC2(C(=O)O)CCC2)cc1Cl
52 | < 5 | CCOc1cc(O[C@H]2CCc3c(-c4cccc(OCCCN5[C@H](C)CC[C@H]5C)c4C)cccc32)c(Cl)cc1CNC[C@@H]1CCC(=O)N1
53 | 5 to 500 | CCOc1cc(O[C@H]2CCc3c(-c4cccc(OCCCN5[C@H](C)CC[C@H]5C)c4C)cccc32)c(Cl)cc1CN1CCC(O)CC1
54 | < 5 | N#Cc1cncc(COc2cc(O[C@H]3CCc4c(-c5cccc(OCCCN6CC7(CC(F)C7)C6)c5Cl)cccc43)c(Cl)cc2CN[C@@H]2CCCC[C@@H]2O)c1
55 | 5 to 500 | CCOc1cc(O[C@H]2CCc3c(-c4cccc(OCCCNC(C)(C)C)c4C)cccc32)c(Cl)cc1CN1CC(C(=O)O)C1
56 | < 5 | CCOc1cc(O[C@H]2CCc3c(-c4cccc(OCCCN5C(C)CC5(C)C)c4C)cccc32)c(Cl)cc1CNC[C@@H]1CCC(=O)N1 (stereo partly drawn)
57 | < 5 | CCOc1cc(O[C@H]2CCc3c(-c4cccc(OCCCN5CCC5(C)C)c4C)cccc32)c(Cl)cc1CNCCO
58 | 5 to 500 | CCOc1cc(O[C@H]2CCc3c(-c4cccc(OCCCN5CC[C@@H](O)C5)c4C)cccc32)c(Cl)cc1CN1CCCC[C@H]1C(=O)O
59 | 5 to 500 | CCOc1cc(O[C@H]2CCc3c(-c4cccc(OCCCN5[C@H](C)CC[C@H]5C)c4C)cccc32)c(Cl)cc1CN1CCC[C@H](C(=O)O)C1
60 | < 5 | Cc1c(OCCCN2CCC(O)CC2)cccc1-c1cccc2c1CC[C@@H]2Oc1cc(OCc2cncc(C#N)c2)c(CNCC2CCC(=O)N2)cc1Cl (stereo partly drawn)
